Positions of bridges follow the written chain, without caps; N, C: chain ends. Non-standard residues stand in square brackets, D forms with d. Residues, ends and D or L forms follow the SMILES beside them. d2Nal = N[C@H](Cc1ccc2ccccc2c1)C(=O)O
Tests used:
Melanocortin receptor 4 [1] = target: T1, Melanocortin receptor 4 (Homo sapiens, UniProt P32245); assay: Agonist activity against human Melanocortin-4 receptor; assay type: functional
Melanocortin receptor 4 [2] = target: T1, Melanocortin receptor 4; assay: Binding affinity against human Melanocortin-4 receptor
Melanocortin receptor 5 = Melanocortin receptor 5 (Homo sapiens, UniProt P33032); assay: Binding affinity against human Melanocortin 5 receptor
Melanocortin receptor 3 = Melanocortin receptor 3 (Homo sapiens, UniProt P41968); assay: Binding affinity for human Melanocortin-3 receptor
Chain of Melanocortin receptor 3 (P41968 whole entry): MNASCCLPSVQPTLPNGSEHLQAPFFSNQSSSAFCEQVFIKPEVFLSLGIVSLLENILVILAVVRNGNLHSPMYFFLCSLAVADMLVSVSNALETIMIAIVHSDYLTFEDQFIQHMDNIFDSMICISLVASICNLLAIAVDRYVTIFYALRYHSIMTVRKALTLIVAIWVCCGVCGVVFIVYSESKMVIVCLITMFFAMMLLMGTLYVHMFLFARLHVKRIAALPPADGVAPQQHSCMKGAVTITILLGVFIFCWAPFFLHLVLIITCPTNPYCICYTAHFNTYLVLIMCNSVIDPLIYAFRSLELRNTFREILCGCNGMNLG

Chain of Melanocortin receptor 5 (P33032 whole entry): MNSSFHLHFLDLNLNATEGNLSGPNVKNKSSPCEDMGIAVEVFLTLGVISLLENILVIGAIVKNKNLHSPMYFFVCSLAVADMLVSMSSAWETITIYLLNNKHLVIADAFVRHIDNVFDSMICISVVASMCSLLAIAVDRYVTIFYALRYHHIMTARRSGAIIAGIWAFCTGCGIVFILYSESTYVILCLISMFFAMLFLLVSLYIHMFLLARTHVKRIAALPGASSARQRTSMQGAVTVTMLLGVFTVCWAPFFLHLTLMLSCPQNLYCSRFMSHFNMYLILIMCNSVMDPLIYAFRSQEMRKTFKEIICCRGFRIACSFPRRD
T1 sequence (P32245 whole entry): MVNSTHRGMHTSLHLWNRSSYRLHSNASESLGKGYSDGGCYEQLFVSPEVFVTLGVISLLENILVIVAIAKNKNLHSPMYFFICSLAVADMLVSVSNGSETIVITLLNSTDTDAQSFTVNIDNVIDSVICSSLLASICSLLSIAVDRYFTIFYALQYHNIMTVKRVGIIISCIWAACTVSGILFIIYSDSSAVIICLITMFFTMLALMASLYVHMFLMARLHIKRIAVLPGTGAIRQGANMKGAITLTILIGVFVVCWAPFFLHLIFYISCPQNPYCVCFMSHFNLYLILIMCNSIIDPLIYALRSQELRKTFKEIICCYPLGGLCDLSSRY

SMILES | Activity (Melanocortin receptor 4 [1]) [%] | IC50 (Melanocortin receptor 4 [2]) [nM] | IC50 (Melanocortin receptor 5) [nM] | IC50 (Melanocortin receptor 3) [nM] | EC50 (Melanocortin receptor 5) [nM]
CC(=O)[C@@H]1CSSC[C@@H](C(=O)N2CCC[C@H]2C(=O)CN2CCC[C@H]2C(=O)CN[C@@H](CCCCN)C(=O)CN[C@@H](CC(=O)O)C(N)=O)NC(=O)CNC(=O)[C@@H](Cc2c[nH]c3ccccc23)NC(=O)[C@H](CCCN=C(N)N)NC(=O)[C@H](Cc2ccc3ccccc3c2)NC(=O)[C@H](Cc2c[nH]cn2)NC(=O)[C@@H](CCC(=O)O)NC1=O | 0 |  |  |  | 
CC(=O)N[C@H]1CSSC[C@@H](C(=O)N2CCC[C@H]2C(=O)N2CCC[C@H]2C(=O)N[C@@H](CCCCN)C(=O)N[C@@H](CC(=O)O)C(N)=O)NC(=O)CNC(=O)[C@H](Cc2c[nH]c3ccccc23)NC(=O)[C@H](CCCNC(=N)N)NC(=O)[C@@H](Cc2ccc3ccccc3c2)NC(=O)[C@H](Cc2c[nH]cn2)NC(=O)[C@H](CCC(=O)O)NC1=O (Ac-CEH[d2Nal]RWGCPPKD-NH2; disulfide 1-8) |  | 1.5 | 16 | 25 | 
N=C(N)NCCC[C@@H]1NC(=O)[C@@H](Cc2cccc3ccccc23)NC(=O)CCC(=O)NCCCC[C@@H](C(N)=O)NC(=O)[C@H](Cc2c[nH]c3ccccc23)NC1=O |  | 0.5 | 540 | 150 | 530

Reference: ChEMBL document CHEMBL1135658, “Structure-activity studies of the melanocortin peptides: discovery of potent and selective affinity antagonists for the hMC3 and hMC4 receptors” (J Med Chem, 2002)
